Test system: HT1080 cells
Assay: Cell viability assay 2 (CellTiterGlo), HT1080 cells
Format: cell-based
Settings: Homo sapiens, HT-1080, cell line printed as HCT1080, 48 or 72 h
Method: Cancer cell lines were in seeded in ViewPlates-96 microplates (PerkinElmer). HT1080 cells at 7500 cells per well and cultured in DMEM, high glucose, GlutaMAX media containing 10% FBS at 37° C. in 5% CO2 atmosphere. Cells were cultured overnight and the compounds (dissolved in DMSO and diluted to 0.2% DMSO) were added to the cells at concentrations ranging from 0 to 20 μM. The cells were incubated under standard culture conditions for either 24, 48 or 72 h. Cell viability was as quantitated using the CellTiterGlo Luminescent Cell Viability Assay (Promega) according to the manufacturer's instructions to measure ATP generated by metabolically active cells. Luminescent signals were measured using an Envision 2103 Multilabel Microplate Reader (PerkinElmer). The luminescence signals obtained from the compound-treated cells were normalized against the signal for DMSO-only treated cells.

Question: Which IC50 does the source give for `COc1nc(-c2cccc3c2OCCO3)ccc1Nc1ccc(CN(C)C)cc1` [compound 56, [6-(2,3-Dihydro-benzo[1,4]dioxin-5-yl)-2-methoxy-pyridin-3-yl]-(4-dimethylaminomethyl-phenyl)-amine] here?
Answer: 10 µM

From patent publication US12024506B2, “Compounds” (Oxford University Innovation Limited, priority 2018, dated 2024)
